Assay results reported in paper PMC8245078, “Development of novel benzofuran-isatin conjugates as potential antiproliferative agents with apoptosis inducing mechanism in Colon cancer” (Journal of Enzyme Inhibition and Medicinal Chemistry, 2021).
Like-named read-outs stand apart in the source and are kept apart here.

How the values were obtained:
Type in all cases: cell-based
[1] = test system: NCI-H522; test: NCI single dose screening (10 µM); conditions: Homo sapiens
[2] = test system: HCC-2998; test: NCI single dose screening (10 µM); conditions: Homo sapiens
[3] = test system: EKVX; test: NCI single dose screening (10 µM); conditions: Homo sapiens, read-out: GI% (cell growth inhibition percentage)
[4] = test system: SF-295; test: NCI single dose screening (10 µM); conditions: Homo sapiens
[5] = test system: MCF7; test: NCI single dose screening (10 µM); conditions: Homo sapiens
[6] = test system: KM12; test: NCI single dose screening (10 µM); conditions: Homo sapiens
[7] = test system: SF-268; test: NCI single dose screening (10 µM); conditions: Homo sapiens
[8] = test system: MOLT-4; test: NCI single dose screening (10 µM); conditions: Homo sapiens
[9] = test system: CAKI-1; test: NCI single dose screening (10 µM); conditions: Homo sapiens
[10] = test system: HOP-62; test: NCI single dose screening (10 µM); conditions: Homo sapiens
[11] = test system: U251; test: NCI single dose screening (10 µM); conditions: Homo sapiens
[12] = test system: BT-549; test: NCI single dose screening (10 µM); conditions: Homo sapiens
[13] = test system: HT-29; test: NCI single dose screening (10 µM); conditions: Homo sapiens
[14] = test system: HCT-116; test: NCI single dose screening (10 µM); conditions: Homo sapiens
[15] = test system: NCI-55 cancer cell line panel; test: NCI single dose screening (10 µM), whole panel; conditions: Homo sapiens, read-out: Mean inhibition, % (mean GI%)
[16] = test system: TK-10; test: NCI single dose screening (10 µM); conditions: Homo sapiens
[17] = test system: RXF 393; test: NCI single dose screening (10 µM); conditions: Homo sapiens
[18] = test system: OVCAR-5; test: NCI single dose screening (10 µM); conditions: Homo sapiens
[19] = test system: SF-539; test: NCI single dose screening (10 µM); conditions: Homo sapiens
[20] = test system: K-562; test: NCI single dose screening (10 µM); conditions: Homo sapiens
[21] = test system: COLO 205; test: NCI single dose screening (10 µM); conditions: Homo sapiens
[22] = test system: OVCAR-8; test: NCI single dose screening (10 µM); conditions: Homo sapiens
[23] = test system: CCRF-CEM; test: NCI single dose screening (10 µM); conditions: Homo sapiens, read-out: GI% (cell growth inhibition percentage)
[24] = test system: MDA-MB-231/ATCC; test: NCI single dose screening (10 µM); conditions: Homo sapiens
[25] = test system: NCI/ADR-RES; test: NCI single dose screening (10 µM); conditions: Homo sapiens, read-out: GI% (cell growth inhibition percentage)
[26] = test system: M14; test: NCI single dose screening (10 µM); conditions: Homo sapiens
[27] = test system: MDA-MB-468; test: NCI single dose screening (10 µM); conditions: Homo sapiens
[28] = test system: NCI-H23; test: NCI single dose screening (10 µM); conditions: Homo sapiens
[29] = test system: HL-60(TB); test: NCI single dose screening (10 µM); conditions: Homo sapiens
[30] = test system: OVCAR-4; test: NCI single dose screening (10 µM); conditions: Homo sapiens
[31] = test system: ACHN; test: NCI single dose screening (10 µM); conditions: Homo sapiens, read-out: GI% (cell growth inhibition percentage)

Cc1c(C(=O)N/N=C2\C(=O)N(C)c3ccccc32)oc2ccccc12 [Compound 7a]
inhibition at 10 µM ([1]; NCI-H522, Non-small cell lung cancer, single dose 10^−5 M, read-out: GI% (cell growth inhibition percentage)): < 10% | inhibition at 10 µM ([2]; HCC-2998, Colon cancer, single dose 10^−5 M, read-out: GI% (cell growth inhibition percentage)): < 10% | inhibition at 10 µM ([3]; Non-small cell lung cancer, single dose 10^−5 M): 25.1% | inhibition at 10 µM ([4]; SF-295, CNS cancer, single dose 10^−5 M, read-out: GI% (cell growth inhibition percentage)): 11.8% | inhibition at 10 µM ([5]; MCF7, Breast cancer, single dose 10^−5 M, read-out: GI% (cell growth inhibition percentage)): 28.2% | inhibition at 10 µM ([6]; KM12, Colon cancer, single dose 10^−5 M, read-out: GI% (cell growth inhibition percentage)): < 10% | inhibition at 10 µM ([7]; SF-268, CNS cancer, single dose 10^−5 M, read-out: GI% (cell growth inhibition percentage)): < 10% | inhibition at 10 µM ([8]; MOLT-4, Leukaemia, single dose 10^−5 M, read-out: GI% (cell growth inhibition percentage)): < 10% | inhibition at 10 µM ([9]; CAKI-1, Renal cancer, single dose 10^−5 M, read-out: GI% (cell growth inhibition percentage)): 19.4% | inhibition at 10 µM ([10]; HOP-62, Non-small cell lung cancer, single dose 10^−5 M, read-out: GI% (cell growth inhibition percentage)): < 10% | inhibition at 10 µM ([11]; U-251, U251, CNS cancer, single dose 10^−5 M, read-out: GI% (cell growth inhibition percentage)): < 10% | inhibition at 10 µM ([12]; BT-549, Breast cancer, single dose 10^−5 M, read-out: GI% (cell growth inhibition percentage)): < 10% | inhibition at 10 µM ([13]; HT-29, Colon cancer, single dose 10^−5 M, read-out: GI% (cell growth inhibition percentage)): < 10% | inhibition at 10 µM ([14]; HCT-116, Colon cancer, single dose 10^−5 M, read-out: GI% (cell growth inhibition percentage)): < 10% | inhibition at 10 µM ([15]; mean over NCI-55 cell lines, single dose 10^−5 M): 0.09% | inhibition at 10 µM ([16]; TK-10, Renal cancer, single dose 10^−5 M, read-out: GI% (cell growth inhibition percentage)): < 10% | inhibition at 10 µM ([17]; RXF 393, Renal cancer, single dose 10^−5 M, read-out: GI% (cell growth inhibition percentage)): < 10% | inhibition at 10 µM ([18]; OVCAR-5, Ovarian cancer, single dose 10^−5 M, read-out: GI% (cell growth inhibition percentage)): < 10% | inhibition at 10 µM ([19]; SF-539, CNS cancer, single dose 10^−5 M, read-out: GI% (cell growth inhibition percentage)): < 10% | inhibition at 10 µM ([20]; K562, K-562, Leukaemia, single dose 10^−5 M, read-out: GI% (cell growth inhibition percentage)): < 10% | inhibition at 10 µM ([21]; COLO 205, Colon cancer, single dose 10^−5 M, read-out: GI% (cell growth inhibition percentage)): < 10% | inhibition at 10 µM ([22]; OVCAR-8, Ovarian cancer, single dose 10^−5 M, read-out: GI% (cell growth inhibition percentage)): < 10% | inhibition at 10 µM ([23]; Leukaemia, single dose 10^−5 M): < 10% | inhibition at 10 µM ([24]; MDA-MB-231/ATCC, Breast cancer, single dose 10^−5 M, read-out: GI% (cell growth inhibition percentage)): < 10% | inhibition at 10 µM ([25]; Ovarian cancer, single dose 10^−5 M): < 10% | inhibition at 10 µM ([26]; M14, Melanoma, single dose 10^−5 M, read-out: GI% (cell growth inhibition percentage)): < 10% | inhibition at 10 µM ([27]; MDA-MB-468, Breast cancer, single dose 10^−5 M, read-out: GI% (cell growth inhibition percentage)): < 10% | inhibition at 10 µM ([28]; NCI-H23, Non-small cell lung cancer, single dose 10^−5 M, read-out: GI% (cell growth inhibition percentage)): < 10% | inhibition at 10 µM ([29]; HL-60(TB), Leukaemia, single dose 10^−5 M, read-out: GI% (cell growth inhibition percentage)): < 10% | inhibition at 10 µM ([30]; OVCAR-4, Ovarian cancer, single dose 10^−5 M, read-out: GI% (cell growth inhibition percentage)): < 10% | inhibition at 10 µM ([31]; Renal cancer, single dose 10^−5 M): < 10%

Cc1c(C(=O)N/N=C2\C(=O)N(Cc3ccccc3)c3ccccc32)oc2ccccc12 [Compound 7d]
inhibition at 10 µM ([1]; NCI-H522, read-out: GI% (cell growth inhibition percentage)): 21.7% | inhibition at 10 µM ([2]; HCC 2998, read-out: GI% (cell growth inhibition percentage)): < 10% | inhibition at 10 µM [3]: 30.2% | inhibition at 10 µM ([4]; SF-295, read-out: GI% (cell growth inhibition percentage)): < 10% | inhibition at 10 µM ([5]; MCF7, read-out: GI% (cell growth inhibition percentage)): 16.7% | inhibition at 10 µM ([6]; KM12, read-out: GI% (cell growth inhibition percentage)): < 10% | inhibition at 10 µM ([7]; SF-268, read-out: GI% (cell growth inhibition percentage)): < 10% | inhibition at 10 µM ([8]; MOLT-4, read-out: GI% (cell growth inhibition percentage)): < 10% | inhibition at 10 µM ([9]; CAKI-1, read-out: GI% (cell growth inhibition percentage)): 19% | inhibition at 10 µM ([10]; HOP-62, read-out: GI% (cell growth inhibition percentage)): 20.8% | inhibition at 10 µM ([11]; U-251, read-out: GI% (cell growth inhibition percentage)): < 10% | inhibition at 10 µM ([12]; BT-549, read-out: GI% (cell growth inhibition percentage)): < 10% | inhibition at 10 µM ([13]; HT-29, read-out: GI% (cell growth inhibition percentage)): < 10% | inhibition at 10 µM ([14]; HCT-116, read-out: GI% (cell growth inhibition percentage)): < 10% | inhibition at 10 µM [15]: 6.01% | inhibition at 10 µM ([16]; TK-10, read-out: GI% (cell growth inhibition percentage)): < 10% | inhibition at 10 µM ([17]; RXF 393, read-out: GI% (cell growth inhibition percentage)): < 10% | inhibition at 10 µM ([18]; OVCAR-5, read-out: GI% (cell growth inhibition percentage)): < 10% | inhibition at 10 µM ([19]; SF-539, read-out: GI% (cell growth inhibition percentage)): < 10% | inhibition at 10 µM ([20]; K562, read-out: GI% (cell growth inhibition percentage)): < 10% | inhibition at 10 µM ([21]; COLO 205, read-out: GI% (cell growth inhibition percentage)): < 10% | inhibition at 10 µM ([22]; OVCAR-8, read-out: GI% (cell growth inhibition percentage)): < 10% | inhibition at 10 µM [23]: < 10% | inhibition at 10 µM ([24]; MDA-MB-231, read-out: GI% (cell growth inhibition percentage)): 18.3% | inhibition at 10 µM [25]: 10.2% | inhibition at 10 µM ([26]; M14, read-out: GI% (cell growth inhibition percentage)): < 10% | inhibition at 10 µM ([27]; MDA-MB-468, read-out: GI% (cell growth inhibition percentage)): < 10% | inhibition at 10 µM ([28]; NCI-H23, read-out: GI% (cell growth inhibition percentage)): 13.2% | inhibition at 10 µM ([29]; HL-60, read-out: GI% (cell growth inhibition percentage)): < 10% | inhibition at 10 µM ([30]; OVCAR-4, read-out: GI% (cell growth inhibition percentage)): < 10% | inhibition at 10 µM [31]: 13.3%
